Measured values reported in patent publication US20050255493A1, “Molecular targeting of the IGF-1 receptor” (priority 2002, published 2005).

Key:
[1] = system: IGF1R mRNA; experiment: Oligonucleotide scanning array hybridisation with labelled transcript; type: binding, human; details: for Rel hyb intensity: relative to the most strongly hybridising sequence on the array; for Hyb intensity: scanning array probed with labelled IGF1R mRNA
Method: Scanning arrays complementary to the region of the IGF1R mRNA from position 537-685 were prepared using the standard techniques described in Southern E. M. et al., Nucleic Acids Res., 1994, 22(8): 1368-1373; and Sohail, M. and Southern, E. M. “Using oligonucleotide scanning arrays to find effective antisense reagents”, Methods in Molecular Biology, vol. 170: DNA Arrays: Methods and Protocols, Ed J. B. Rampal, Humana Press Inc., Totowa, N.J.
The scanning arrays comprise sets of oligonucleotides of various lengths. A series of oligonucleotides, complementary to the target mRNA, is made by sequential coupling of nucleotides to a solid surface. The DNA synthesis reagents are applied to a confined area on the surface of the solid support using a mask. The mask is shifted along the surface after each round of coupling, resulting in a series of oligonucleotides each complementary to a region of the target sequence.
• 2. Remove 1 μL for quantitation (see below). • 3. Remove unincorporated label by Sephadex® G25 column chromatography (see Note 11). • 4. Save 1 μL of the purified transcript for quantitation (see below). • 5. Check the integrity of the transcript by denaturing polyacrylamide gel electrophoresis (10). • 6. Add 10 μL of the scintillation fluid to the samples saved in Steps 2 and 4. • 7. Mix by vortexing and count the samples in a scintillation counter for 1 min. • 8. Calculate the percent incorporation: [formula] • 9. Calculate the amount of RNA made: [formula] Hybridisation to Arrays Made on Polypropylene • 1. Place the array in the hybridisation tube, coiling it in a spiral. • 2. Dilute the radiolabelled transcript in an appropriate volume (10-20 mL depending upon the size of the array and the hybridisation tube) of hybridisation buffer. The mix should cover the array along the length of the tube. • 3. Place items 1 and 2 in the oven at desired temperature for 30 min. Also put approximately 100 mL of the hybridisation buffer in the oven: this is to be used to wash the array at the end of hybridisation. • 4. Pour the hybridisation mix into the tube containing the array and hybridise for 3-4 h. • 5. Remove the hybridisation mix. Briefly wash the array with the hybridisation buffer from Step 3, air dry, cover with cling film and expose to a storage phosphor screen for 16-20 h (see Note 12). • 6. Scan the screen on PhosphorImager or STORM and analyse the image using xvseq (see below). Hybridisation to Arrays Made on Glass • 1. Clean the non-array glass plate with acetone and ethanol to ensure it is grease-free and siliconise it by treatment with dimethyl dichlorosilane solution and place it in lidded box. Also place moist paper towel in the box. • 2. Dilute the radiolabelled transcript in an appropriate volume of the hybridisation buffer (for example, for an array of 250 mm×50 mm use 500-750 μL). • 3. Place items 1 and 2 in an incubator at desired temprature for 30 min. Also put approximately 100 mL of the hybridisation buffer in the oven: this is to be used to wash the array at the end of hybridisation. • 4. Using a micropipette, pipette the hybridisation mix in a line evenly along the length of the non-array glass plate, avoiding formation of air bubbles. • 5. Starting at one end, carefully place the scanning array (face down) on top of the hybridisation mix. The mix will spread out and form a thin film between the two plates. Incubate for 3-4 h. • 6. Separate the plates from each other and wash the array plate with hybridisation buffer to remove unbound mix. Drain the plate, air dry, cover with cling film and expose to a storage phosphor screen for 16-20 h. • 7. Scan the screen on PhosphorImager or STORM and analyse the image using xvseq (see below). Alternative Hybridisation Protocol for Glass or Polypropylene • 1. Assemble with clips the array plate (or polypropylene array pasted with PhotoMount™ on a glass plate) and the non-array plate, using rubber tubing as spacers on two sides. • 2. […]

[2] = system: IGF1R; experiment: IGF1R level by immunoblotting in transfected MDA-231 cells; type: cell-based, human; details: MDA-231 cells, 300 nM ASO, 48 hr, vs scrambled control
Method: (§1) The human and murine cell lines used in this study were cultured in RPMI 1640 plus 10% FCS at 37° C. in a humidified atmosphere of 5% CO2. The cultures were negative when tested for Mycoplasma infection. Cultures were passaged the day before transfection to achieve 30-50% confluence the following day. Initial transfections of ASOs used 1-2.5 μg/ml Cytofectin (Glen Research, Sterling, Va.), according to the manufacturer's instructions. Latterly Oligofectamine (Life Sciences) has been used for all ASO and RNAi transfections. The method was as described (see manufacturer's instructions and www.dharmacon.com) with minor modifications. For transfection of monolayers seeded in 6 well plates, 5 μl phosphorothioate oligonucleotide or RNA duplex at 100× final concentration were mixed with 2501 serum-free Optimem (Gibco-BRL). In a separate tube 2 μl Oligofectamine was mixed with 68 μl Optimem. After 10 min incubation at room temperature the contents of the two tubes were mixed and incubated for a further 25 min at room temperature. Monolayers were washed with 1-2 ml Optimem. To the cells were added 175 μl Optimem followed by the 325 μl complexes. Volumes were scaled up by factors of 2.22 or 6.05 for transfection in 60 mm or 100 mm dishes respectively. Cultures were incubated at 37° C. for 4 hr, and then 50 μl FCS and 3.5 ml RPMI plus 5% FCS were added to each well. After 48 hr incubation effects on IGF1R and IR expression were determined by immunoblotting. Some transfected cultures were serum-starved overnight, divided into two aliquots and treated with 10 nM Long R3-IGF-I (GroPep, Adelaide) or diluent for 30 min at 37° C. prior to lysis.
(§2) IGF1R expression was assessed by immunoblotting as previously described (Macaulay et al 2001). After washing in ice-cold PBS, cells were lysed in 50 mM Hepes pH 7.5, 100 mM NaCl, 10 mM EDTA, 1% Triton-X-100, 4 mM sodium pyrophosphate, 2 mM sodium orthovanadate, 10 mM sodium fluoride, 1 mM PMSF, 2 μg/ml each leupeptin and aprotinin. Lysates were centrifuged for 15 minutes at 14,000 g, the protein concentration of supernatants was measured using BCA assay reagent (Pierce), and equivalent amounts of protein were separated on 7.5% SDS-PAGE gels and transferred to nitrocellulose. Target protein levels were assessed using antibodies to the β-subunit of the IGF1R or IR (Santa Cruz), phospho-Ser 473 Akt or total Akt (Cell Signalling, New England Biolabs) or β-tubulin (Sigma). Activated IGF1R was detected by immunoprecipitation for phosphotyrosine (P-Tyr-100, Cell Signaling Technology). Primary antibodies were detected with HRP-conjugated secondary antibodies (Dako), and ECL Plus (Amersham Pharmacia).
(§3) The ASOs and RNAi duplexes were transfected into MDA-231 cells (human ER negative breast cancer) using Cytofectin or Oligofectamine, as described above. After 48 hr the cells were lysed, and IGF1R and IR levels were measured by immunoblotting. The intensity of the autoradiographic bands was quantified by densitometry, and IGF1R (or IR) levels were corrected for loading differences. The specific IGF1R or IR results are presented as % IGF1R (or IR) level of that in cells transfected with the same concentration of an appropriate control. This was a scrambled control oligonucleotide for ASOs, and an inverted RNA duplex for RNAi.

[3] = system: IR; experiment: IR level by immunoblotting in transfected MDA-231 cells; type: cell-based, human
Method: as §1, §2, §3

[4] = system: IGF1R; experiment: IGF1R expression in UC101 ovarian cancer cells treated with 18mer ASOs; type: cell-based, human
Method: as §1, with “Volumes were scaled up by factors of 2.22 or 6.05 for transfection in 60 mm or 100 mm dishes respectively. Cultures were incubated at 37° C. for 4 hr, and then 50 μl FCS and 3.5 ml RPMI plus 5% FCS were added to each well.” left out, “Some transfected cultures were serum-starved overnight, divided into two aliquots and treated with 10 nM Long R3-IGF-I (GroPep, Adelaide) or diluent for 30 min at 37° C. prior to lysis.” left out
as §2, with “After washing in ice-cold PBS, cells were lysed in 50 mM Hepes pH 7.5, 100 mM NaCl, 10 mM EDTA, 1% Triton-X-100, 4 mM sodium pyrophosphate, 2 mM sodium orthovanadate, 10 mM sodium fluoride, 1 mM PMSF, 2 μg/ml each leupeptin and aprotinin.” left out, “Pharmacia). […]” for “Pharmacia).”

[5] = system: IGF1R; experiment: IGF1R levels by immunoblotting in human tumour cell lines transfected with RNAi duplexes; type: cell-based; details: human ovarian (UC101) and prostate (DU145) cancer cells, 10 nM
Method: as §1
as §2, with “Pharmacia). […]” for “Pharmacia).”
Tumour cells were transfected with 10 nM duplexes and IGF1R levels were measured after 48 hr. After correction for loading differences IGF1R levels in cells transfected with RNAi were expressed as % of levels in cells transfected with equivalent inverted control duplex.

[6] = system: MDA-MB-231 cells; experiment: Clonogenic survival and post-irradiation survival (SF2) of transfected MDA-MB-231 cells; type: cell-based, human; details: MDA-MB-231, 100 nM, unirradiated
Method: FIG. 7 A) MDA-MB-231 cells transfected with 100 nM RNA duplexes were serum-starved overnight and treated with 50 nM IGF-I for 30 min. […] Results represent mean±sem of colony counts in triplicate dishes. Similar results were obtained in two further clonogenic assays. • C) Clonogenic survival of transfected MDA-MB-231 cells that were unirradiated or irradiated at 2Gy. The fraction surviving 2Gy irradiation (SF2) is shown as mean±sem of three independent assays.
The effect of transfection with 100 nM ASO4 or siRNA duplexes R4 and R5, equivalent to strongly and weakly hybridizing ASOs respectively, on colony forming efficiency and post-irradiation survival was also evaluated. […] This in turn illustrates the utility of hybridisation to the scanning ASO array in the selection of siRNA reagents, since relative hybridisation to the array is found to be predictive of activity in RNA interference and biological efficacy.

[7] = system: UC101 human ovarian cancer cells; experiment: Tumorigenicity of UC101 ovarian cancer cells transfected with siRNA (xenografts); type: in vivo, female athymic (nu/nu mice); details: UC101 cells transfected with 200 nM siRNA, nu/nu mice
Method: UC101 ovarian cancer cells were transfected with 200 nM siRNA, mixed with irradiated NIH-3T3 cells and inoculated into the flanks of female athymic (nu/nu mice).
Tumorigenicity testing was conducted using UC101 human ovarian cancer cells transfected with 200 nM siRNA. After 48 hr the cells were inoculated into the flanks of female athymic (nu/nu mice), using 5×10^6 tumour cells mixed with 5×10^6 irradiated NIH-3T3 cells per mouse. Tumours were measured and volumes calculated as described (Macaulay et al., Oncogene 20: 2029-40, 2001). All procedures were performed in accordance with the Home Office Scientific Procedures Act 1986, and with the approval of the Animal Ethics Committee of Cancer Research UK.

Substance | Hybridisation to IGF1R mRNA on scanning array ([1]; 37° C. (and 23° C.)) | Rel hyb intensity [1] | Hyb intensity [1] | IGF1R Protein Level (% control) [2] | IR Protein Level (% control) ([3]; 300 nM ASO, 48 hr, vs scrambled control) | IGF1R expression, % of levels in cells treated with scrambled control [4] | IGF1R downregulation, R4 compared with R5 [5] | Clonogenic survival [6] | Tumour development [7] | IR downregulation ([3]; TSS ASO at 300 nM)
ASO6: phosphorothioate antisense oligonucleotide CTTATTCCCCACAATGTA, SEQ ID NO:17; poorly hybridising comparison (DNA, all phosphorothioate, methylation of C not given here) | hybridises poorly | 0.01 | 560 | ˜150 % control | 100 % control | 98% of levels in cells treated with Scr6 | – | – | – | –
R5: RNAi duplex UGAGUACAACUACCGCUGCTT / TTACUCAUGUUGAUGGCGACG, SEQ ID NO:32 (UGAGUACAACUACCGCUGCNN; second strand not cited, chemistry not fully specified) | – | – | – | – | – | – | induced IGF1R downregulation | inhibited survival | rapidly growing tumours | –
ASO2/18mer: phosphorothioate antisense oligonucleotide GGTCTTCTCACACATCGG, SEQ ID NO:6 (DNA, all phosphorothioate, methylation of C not given here) | – | 1.00 | 56,026 | – | – | 39% of levels in cells treated with Scr2 | – | – | – | –
TSS ASO: ASO TCCTCCGGAGCCAGACTT, SEQ ID NO:21, complementary to human IGF1R translation initiation site, identical to that described by Baserga et al. (DNA, all phosphorothioate, methylation of C not given here) [reference compound] | – | – | – | – | – | 33% of levels in cells treated with | – | – | – | detectable reduction in IR levels
